Laboratory results taken from patent US12268666B2, “Spray-dried dispersions, formulations, and polymorphs of (S)-5-amino-3-(4-((5-fluoro-2-methoxybenzamido)methyl)phenyl)-1-(1,1,1-trifluoropropan-2-yl)-1H-pyrazole-4-carboxamide” (Loxo Oncology, Inc., priority 2018, dated 2025).

Assays:
[1] = molecular target: 371 kinases; test: Kinase selectivity assay (Reaction Biology Wild-Type Kinase Profiler); type: biochemical; conditions: 1.0 μM compound; ATP close to Km for each enzyme
Procedure: Each assay is performed at an ATP concentration close to the Km for each enzyme. […] After co-incubation with a serial dilution of the compound of Formula I, the quantity of ^33P incorporated into a peptide substrate is measured and the data analyzed using standard curve fitting methods.

[2] = molecular target: T1, BRK (Homo sapiens, UniProt Q13882); test: Kinase selectivity, radiolabeled ATP activity assay; type: biochemical
T1 construct: purchased Reaction Biology
Procedure: (§1) Each assay is performed at an ATP concentration close to the Km for each enzyme. […] BRK, CSK, ERBB4, FYN, MEK1, MEK2, TXK, and YES1 The inhibitory activity of the compound of Formula I on the enzymatic activity of these kinases and TEC is determined using a radiolabeled ATP activity assay conducted with an ATP concentration near the ATP Km for each enzyme. After co-incubation with a serial dilution of the compound of Formula I, the quantity of ^33P incorporated into a peptide substrate is measured and the data analyzed using standard curve fitting methods.

[3] = molecular target: T2, CSK (Homo sapiens, UniProt P41240); test: as above; type: biochemical
T2 construct: purchased Reaction Biology
Procedure: as §1

[4] = molecular target: T3, FYN (Homo sapiens, UniProt P06241); test: as above; type: biochemical
T3 construct: purchased Reaction Biology
Procedure: as §1

[5] = molecular target: TEC (Homo sapiens, UniProt P42680); test: as above; type: biochemical; conditions: ATP near Km
Procedure: as §1

[6] = molecular target: T4, YES1 (Homo sapiens, UniProt P07947); test: as above; type: biochemical
T4 construct: purchased Reaction Biology
Procedure: as §1

[7] = molecular target: T5, BTK wild type (Homo sapiens, UniProt Q06187); test: Y223 autophosphorylation in HEK293 cells stably expressing BTK; type: cell-based; conditions: 2 hr treatment, signal normalized to total BTK
T5 construct: expressed in transfected cells; host or cells: HEK293
Procedure: HEK293 cell lines stably expressing BTK wild type and the mutant form C481S are generated using standard transfection methods. For assessment of cellular inhibition potency, cells are grown in DMEM +10% Fetal Bovine Serum (FBS)+1 μg/ml puromycin (complete growth media) at 37° C. in a CO2 incubator. Cells are harvested according to standard protocols using TRYPLE™ (Gibco #12604-013), counted, resuspended in complete growth media, and added to 6 well assay plates at 4×10 ^5 cell/well in 2 mL. Plates are incubated overnight at 37° C. with 5% CO2. […] All samples are tested in triplicate. Following compound incubation, the growth medium is discarded, cells are washed with DPBS (1×) (Gibco #14190-144) and lysed in 1 mL of […]™ M (Sigma #C2978) containing 1× Halt phosphatase and protease inhibitor cocktails (Pierce #78442). Plates are placed on ice for 1 hr with gentle agitation and stored at −80° C. overnight. The next day, cell lysates are placed in 1.5 mL tubes and cleared by centrifugation at 16,000×g for 10 min at 4° C. Supernatants are quantified by BCA (Pierce #23225) and stored at −80° C. Samples are analyzed by Simple Western (Protein Simple) with anti-phospho-BTK (Y223) (Cell Signaling Technologies (CST) #5082) and anti-BTK (CST #8547) (FIGS. 10A and 10B). β-actin is used as a loading control and detected by regular Western blot with an anti-3-actin antibody (CST #4970).

[8] = tested on: TMD8 tumor xenografts; test: Tumor growth in TMD8 human diffuse large B cell lymphoma xenograft model; type: in vivo
Procedure: The human diffuse large B cell lymphoma TMD8 cells are maintained in suspension in RPMI 1640 with 10% Fetal Calf Serum (FCS) and 1% of Glutamax. The cells are transferred to a 50 mL Falcon tube and centrifuged at 1200 rpm for 5 min. The supernatant is removed and the cell pellet resuspended in PBS before being mixed with Matrigel (1/1, v/v). The cell suspension:Matrigel mixture at a final target cell concentration of 40×10^6 cells/mL is kept on ice until the s.c. injections (250 μL/mouse) to maintain the Matrigel solution in a liquid state.
The animals are female BalB/c mice aged 9 weeks-old at the day of injection. The mice are housed in individually ventilated cage racks with HEPA filtered air supply and all materials that contact the immunodeficient animals are steam sterilized. This includes cages, bedding, water and feed. The animal room conditions are set as follows. The temperature is 22±2° C., and the relative humidity is 50±10%. The light/dark cycle is 12 h/12 h, and the air change rate is 12 to 15 cycles/hour of filtered, 100% fresh air. All animals had free access to sterilized water and irradiated controlled food (reference A04CSafe, Augy-France).
The compound of Formula I is formulated in methylcellulose/Tween80/Water (0.6%/0.5%/98.5%; w/w/v). The vehicle for the dosing of control group is methylcellulose/Tween 80/Water (0.6%/0.5%/98.5%; w/w/v), 10 mL/kg. 151.4 mg of the compound of Formula I are weighed and formulated with 50.4 mL of vehicle to obtain a solution at 3 mg/mL of free base. For the 1 mg/mL suspension preparation, 50.1 mg of the compound of Formula I are weighed and solubilized in 50.1 mL of vehicle. […]
Tumor width and length are measured with digital calipers. The tumor volume in mm^3 is calculated by the formula: Volume=0.52×(width)^2×length[…], width and length measured in mm. […]
Tumors are collected from each mouse at Day 28 post the cell injection. […] Tumor weight statistical analysis between each group is determined by a 1-way ANOVA and by 2-Way ANOVA with repeated measures for the mice weight and the tumor volume monitoring, followed by a Dunnett's test. […]

[9] = 1.0 μM compound, ATP close to Km, read-out: Percent of Control (POC)

T1 sequence (Q13882 whole entry): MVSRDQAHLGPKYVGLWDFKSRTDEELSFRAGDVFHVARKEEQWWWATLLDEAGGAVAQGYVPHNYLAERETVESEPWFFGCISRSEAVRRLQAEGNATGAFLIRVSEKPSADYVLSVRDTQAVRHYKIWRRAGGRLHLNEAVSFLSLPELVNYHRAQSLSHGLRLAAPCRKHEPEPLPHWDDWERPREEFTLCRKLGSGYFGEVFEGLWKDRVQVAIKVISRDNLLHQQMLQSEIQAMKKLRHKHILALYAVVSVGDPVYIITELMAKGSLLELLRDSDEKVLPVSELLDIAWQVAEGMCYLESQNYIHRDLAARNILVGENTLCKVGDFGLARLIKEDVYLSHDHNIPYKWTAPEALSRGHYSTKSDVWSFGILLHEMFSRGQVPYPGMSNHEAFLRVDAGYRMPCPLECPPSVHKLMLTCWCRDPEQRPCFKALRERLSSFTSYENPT
T4 sequence (P07947 whole entry): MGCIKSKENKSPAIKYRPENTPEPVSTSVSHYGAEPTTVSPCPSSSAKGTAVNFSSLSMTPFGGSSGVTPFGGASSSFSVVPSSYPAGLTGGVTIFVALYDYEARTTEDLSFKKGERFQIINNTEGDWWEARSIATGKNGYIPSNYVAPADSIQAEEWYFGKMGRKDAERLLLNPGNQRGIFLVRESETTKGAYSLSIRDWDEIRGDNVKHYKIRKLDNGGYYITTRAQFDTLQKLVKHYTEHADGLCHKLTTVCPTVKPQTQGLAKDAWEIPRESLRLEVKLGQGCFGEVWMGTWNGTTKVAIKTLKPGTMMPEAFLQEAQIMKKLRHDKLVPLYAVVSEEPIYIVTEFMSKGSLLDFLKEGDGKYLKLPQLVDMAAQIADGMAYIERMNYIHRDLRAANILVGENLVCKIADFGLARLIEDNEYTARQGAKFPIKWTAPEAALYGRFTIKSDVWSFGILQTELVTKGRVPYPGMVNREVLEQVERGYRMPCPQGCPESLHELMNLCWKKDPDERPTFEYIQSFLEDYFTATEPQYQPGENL
T3 sequence (P06241 whole entry): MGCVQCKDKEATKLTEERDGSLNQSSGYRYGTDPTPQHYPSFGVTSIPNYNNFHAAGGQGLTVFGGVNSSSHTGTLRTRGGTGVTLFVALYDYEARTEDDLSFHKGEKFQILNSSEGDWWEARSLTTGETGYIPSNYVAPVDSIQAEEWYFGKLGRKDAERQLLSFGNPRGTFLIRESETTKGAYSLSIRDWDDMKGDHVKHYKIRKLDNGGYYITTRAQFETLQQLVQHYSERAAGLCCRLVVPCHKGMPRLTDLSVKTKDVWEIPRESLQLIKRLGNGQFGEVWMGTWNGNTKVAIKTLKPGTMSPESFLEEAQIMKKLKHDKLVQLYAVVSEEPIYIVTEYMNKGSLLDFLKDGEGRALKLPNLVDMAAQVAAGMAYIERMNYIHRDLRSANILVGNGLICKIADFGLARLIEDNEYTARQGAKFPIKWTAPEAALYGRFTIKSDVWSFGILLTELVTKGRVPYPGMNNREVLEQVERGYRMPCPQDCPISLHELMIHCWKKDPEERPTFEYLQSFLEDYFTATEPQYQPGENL
T2 sequence (P41240 whole entry): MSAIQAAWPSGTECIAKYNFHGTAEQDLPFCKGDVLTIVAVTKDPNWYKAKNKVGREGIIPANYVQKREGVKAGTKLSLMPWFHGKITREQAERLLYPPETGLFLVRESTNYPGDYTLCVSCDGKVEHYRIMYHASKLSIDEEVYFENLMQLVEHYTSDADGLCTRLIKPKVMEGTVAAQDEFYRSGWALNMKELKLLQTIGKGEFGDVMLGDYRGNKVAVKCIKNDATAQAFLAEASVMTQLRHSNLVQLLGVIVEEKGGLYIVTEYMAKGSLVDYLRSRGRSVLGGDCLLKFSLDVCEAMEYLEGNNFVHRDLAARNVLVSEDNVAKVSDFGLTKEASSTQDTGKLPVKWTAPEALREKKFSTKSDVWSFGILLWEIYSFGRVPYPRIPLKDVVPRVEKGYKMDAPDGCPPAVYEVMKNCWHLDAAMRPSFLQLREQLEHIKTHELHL
T5 sequence (Q06187 whole entry): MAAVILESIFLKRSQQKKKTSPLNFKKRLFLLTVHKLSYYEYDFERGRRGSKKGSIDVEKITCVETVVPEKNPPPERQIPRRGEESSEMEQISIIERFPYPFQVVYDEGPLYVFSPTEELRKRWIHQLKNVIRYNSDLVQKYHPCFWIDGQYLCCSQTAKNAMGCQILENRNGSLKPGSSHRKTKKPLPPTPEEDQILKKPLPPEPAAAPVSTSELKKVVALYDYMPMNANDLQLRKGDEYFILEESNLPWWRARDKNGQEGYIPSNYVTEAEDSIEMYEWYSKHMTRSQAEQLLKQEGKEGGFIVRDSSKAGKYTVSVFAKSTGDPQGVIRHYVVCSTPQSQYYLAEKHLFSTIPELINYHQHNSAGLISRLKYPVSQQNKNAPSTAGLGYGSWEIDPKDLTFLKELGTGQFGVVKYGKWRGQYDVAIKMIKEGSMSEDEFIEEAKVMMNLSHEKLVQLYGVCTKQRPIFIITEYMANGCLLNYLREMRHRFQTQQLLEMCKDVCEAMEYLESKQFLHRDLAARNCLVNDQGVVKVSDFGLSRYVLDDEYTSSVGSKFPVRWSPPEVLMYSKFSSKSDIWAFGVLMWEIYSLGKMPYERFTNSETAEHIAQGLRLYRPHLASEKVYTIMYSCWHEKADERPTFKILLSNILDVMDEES
TEC, sequence (P42680 whole entry): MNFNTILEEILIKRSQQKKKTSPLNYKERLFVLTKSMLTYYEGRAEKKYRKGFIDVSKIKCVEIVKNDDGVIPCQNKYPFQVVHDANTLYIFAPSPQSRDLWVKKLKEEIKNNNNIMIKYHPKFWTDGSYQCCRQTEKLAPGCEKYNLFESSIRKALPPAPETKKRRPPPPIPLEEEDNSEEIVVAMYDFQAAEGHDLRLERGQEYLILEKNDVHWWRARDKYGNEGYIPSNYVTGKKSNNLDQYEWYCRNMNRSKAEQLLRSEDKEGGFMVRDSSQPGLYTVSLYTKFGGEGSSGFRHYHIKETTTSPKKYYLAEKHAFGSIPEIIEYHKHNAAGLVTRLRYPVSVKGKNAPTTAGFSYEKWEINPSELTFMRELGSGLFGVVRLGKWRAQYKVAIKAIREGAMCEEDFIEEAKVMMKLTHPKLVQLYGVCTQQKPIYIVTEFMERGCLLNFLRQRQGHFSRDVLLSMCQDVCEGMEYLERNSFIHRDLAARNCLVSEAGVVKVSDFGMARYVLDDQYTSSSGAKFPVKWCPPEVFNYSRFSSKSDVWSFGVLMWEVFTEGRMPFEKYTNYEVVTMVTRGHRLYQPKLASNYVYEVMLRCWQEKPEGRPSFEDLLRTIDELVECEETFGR

COc1ccc(F)cc1C(=O)NCc1ccc(-c2nn([C@@H](C)C(F)(F)F)c(N)c2C(N)=O)cc1 [compound of Formula I, (S)-5-amino-3-(4-((5-fluoro-2-methoxybenzamido)methyl)phenyl)-1-(1,1,1-trifluoropropan-2-yl)-1H-pyrazole-4-carboxamide]
kinases other than BTK with Percent of Control (POC) values less than 50 [1]: only eight of 371 kinases other than BTK | remaining activity at 1 µM [2, 9]: < 50% | IC50 ([2]; ATP near Km): 54.2 nM | remaining activity at 1 µM [3, 9]: < 50% | IC50 ([3]; ATP near Km): 552 nM | remaining activity at 1 µM [4, 9]: < 50% | IC50 ([4]; ATP near Km): 1710 nM | IC50 [5]: 1230 nM | remaining activity at 1 µM [6, 9]: < 50% | IC50 ([6]; ATP near Km): 157 nM | IC50 [7]: 8.6 ± 0.3 nM | TGI vs the vehicle treated group ([8]; 10 mg/kg oral BID for 14 days): 35% | TGI vs the vehicle treated group ([8]; 30 mg/kg oral BID for 14 days): 87% | tolerability ([8]; chronic oral BID administration for 14 days at 10 and 30 mg/kg): well tolerated
